# Source: patent EP0183129A1, “Quinolonecarboxylic acid derivatives” (KYORIN PHARMACEUTICAL CO., LTD., priority 1984, dated 1986)
# Counter-ions that a name gives are not always drawn. Like-named read-outs stand apart in the source and are kept apart here.
# Columns and labels:
# [1] = test system: Bacillus subtilis PCI 219; assay: In vitro antibacterial activity, MIC (standard strain); type: cell-based; conditions: PCI219
# [2] = test system: Staphylococcus aureus 209 P; assay: as above; type: cell-based; conditions: Staphylococcus aureus 209 P; 10^6 cells/ml; standard strain; read-out: MIC
# [3] = test system: S. aureus IID 670 (Terajima); assay: as above; type: cell-based, Staphylococcus aureus; conditions: Staphylococcus aureus, IID670, S. aureus IID 670 (Terajima); 10^6 cells/ml; standard strain; read-out: MIC
# S. epidermidis IID 866 = assay: as above; type: cell-based; conditions: Staphylococcus epidermidis, IID866, S. epidermidis IID 866; 10^6 cells/ml; standard strain; read-out: MIC
# S. pyogenes IID 692 = assay: as above; type: cell-based; conditions: Streptococcus pyogenes, IID692; S. pyogenes IID 692; 10^6 cells/ml; standard strain; read-out: MIC
# S. faecalis IID 682 = assay: as above; type: cell-based; conditions: Enterococcus faecalis, IID682
# P. mirabilis IID 994 = assay: as above; type: cell-based; conditions: Proteus mirabilis, IID994; P. mirabilis IID 994; 10^6 cells/ml; standard strain; read-out: MIC
# [4] = test system: Citrobacter freundii IID 976; assay: as above; type: cell-based; conditions: IID976; Citrobacter freundii IID 976; 10^6 cells/ml; standard strain; read-out: MIC
# K. pneumoniae 1-220S = assay: as above; type: cell-based; conditions: Klebsiella pneumoniae, 1220S; K. pneumoniae 1-220S; 10^6 cells/ml; standard strain; read-out: MIC
# Shigella sonnei IID 969 = assay: as above; type: cell-based; conditions: IID969, 10^6 cells/ml
# Description: Experiment-1 In vitro antibacterial activity
# The in vitro antibacterial activity against gram-positive and gram-negative bacteria has been investivated.
# The minimum inhibitory concentration (MIC) was determined in accordance with the method recommended by Japan Society of Chemotherapy.
# [5] = test system: Yersinia enterocolitica IID 981; assay: as above; type: cell-based; conditions: IID981; Yersinia enterocolitica IID 981; 10^6 cells/ml; standard strain; read-out: MIC
# [6] = test system: Pseudomonas aeruginosa V-1; assay: as above; type: cell-based; conditions: V1; Pseudomonas aeruginosa V-1; 10^6 cells/ml; standard strain; read-out: MIC
# [7] = test system: Alcaligenes faecalis 0104002; assay: as above; type: cell-based; conditions: Alcaligenes faecalis, 0104002, Alcaligenes faecalis 0104002; 10^6 cells/ml; standard strain; read-out: MIC
# [8] = test system: Bacteroides fragilis GM 7000; assay: as above; type: cell-based; conditions: GM7000; Bacteroides fragilis GM 7000; 10^6 cells/ml; standard strain; read-out: MIC
# B. fragilis 25285 = assay: as above; type: cell-based, Bacteroides fragilis; conditions: Bacteroides fragilis, 25285, B. fragilis 25285; 10^6 cells/ml; standard strain; read-out: MIC
# C. difficile I-E = assay: as above; type: cell-based; conditions: Clostridioides difficile; C. difficile I-E; 10^6 cells/ml; standard strain; read-out: MIC
# S. pneumoniae 24 = assay: In vitro antibacterial activity, MIC (clinical isolates); type: cell-based; conditions: Streptococcus pneumoniae
# S. pneumoniae 2054 = assay: as above; type: cell-based; conditions: Streptococcus pneumoniae; S. pneumoniae 2054; 10^6 cells/ml; clinical isolate; read-out: MIC
# S. pneumoniae 2950 = assay: as above; type: cell-based; conditions: Streptococcus pneumoniae
# S. pneumoniae 3227 = assay: as above; type: cell-based; conditions: Streptococcus pneumoniae
# S. pyogenes 4340 = assay: as above; type: cell-based; conditions: Streptococcus pyogenes
# S. pyogenes 4372 = assay: as above; type: cell-based; conditions: Streptococcus pyogenes
# S. agalactiae 4394 = assay: as above; type: cell-based; conditions: Streptococcus agalactiae; S. agalactiae 4394; 10^6 cells/ml; clinical isolate; read-out: MIC
# S. agalactiae 4342 = assay: as above; type: cell-based; conditions: Streptococcus agalactiae; S. agalactiae 4342; 10^6 cells/ml; clinical isolate; read-out: MIC
# S. faecalis 401 = assay: as above; type: cell-based; conditions: Enterococcus faecalis; S. faecalis 401; 10^6 cells/ml; clinical isolate; read-out: MIC
# E. coli ML4707 = assay: In vivo antibacterial activity against systemic infection in mice; design: species or system mice (ICR-S); conditions: for ED50: Escherichia coli, ML4707, mice (ICR-S), oral, an hour after intraperitoneal infection, challenge dose 2.7 x 10^6 ~ 8.8 x 10^6 cfu/mouse, read-out: ED50 E. coli ML4707; for activity against gram-negative bacterial infections compared with the reference compounds: systemic infection in mice, result in words
# Description: (§1) Experiment-2 In vivo antibacterial activity against systemic infection in mice (ICR-S)
# (§2) The infections were produced by intraperitoneal injection of a suspension of the bacterial culture corresponding to the germ studied. The products were administered orally at an hour after the infection.
# S. aureus Smith = assay: as above; design: species or system mice (ICR-S); conditions: Staphylococcus aureus, po, mice (ICR-S), an hour after intraperitoneal infection
# Description: as §1, §2
# M. pneumoniae Mac. = assay: In vitro antibacterial activity against Mycoplasma, MIC; type: cell-based; conditions: Mycoplasmoides pneumoniae, 120 h; M. pneumoniae Mac.; no visible growth after incubation for 5 days; read-out: MIC
# From the text: Experiment-3 In vitro antibacterial activity against Mycoplasma
# [9] = Bacillus subtilis PCI 219, 10^6 cells/ml, standard strain, read-out: MIC
# [10] = S. faecalis IID 682, 10^6 cells/ml, standard strain, read-out: MIC
# [11] = S. pneumoniae 24, 10^6 cells/ml, clinical isolate, read-out: MIC
# [12] = S. pneumoniae 2950, 10^6 cells/ml, clinical isolate, read-out: MIC
# [13] = S. pneumoniae 3227, 10^6 cells/ml, clinical isolate, read-out: MIC
# [14] = S. pyogenes 4340, 10^6 cells/ml, clinical isolate, read-out: MIC
# [15] = S. pyogenes 4372, 10^6 cells/ml, clinical isolate, read-out: MIC
# [16] = challenge dose 6.0 x 10^5 cfu/mouse, read-out: ED50 S. aureus Smith
SMILES,"MIC [1, 9] [µg/mL]",MIC [2] [µg/mL],MIC [3] [µg/mL],MIC (S. epidermidis IID 866) [µg/mL],MIC (S. pyogenes IID 692) [µg/mL],MIC (S. faecalis IID 682; [10]) [µg/mL],MIC (P. mirabilis IID 994) [µg/mL],MIC [4] [µg/mL],MIC (K. pneumoniae 1-220S) [µg/mL],MIC (Shigella sonnei IID 969) [µg/mL],MIC [5] [µg/mL],MIC [6] [µg/mL],MIC [7] [µg/mL],MIC [8] [µg/mL],MIC (B. fragilis 25285) [µg/mL],MIC (S. pneumoniae 2054) [µg/mL],MIC (S. agalactiae 4394) [µg/mL],MIC (S. agalactiae 4342) [µg/mL],MIC (S. faecalis 401) [µg/mL],MIC (M. pneumoniae Mac.) [µg/mL],other results
"CCNCC1CCN(c2c(F)cc3c(=O)c(C(=O)O)cn(C4CC4)c3c2F)C1 (stereo not drawn) [Example 2, l-Cyclopropyl-7-(3-ethylaminomethyl-l-pyrrolidinyl)-6,8-difluoro-l,4-dihydro-4-oxo-3-quinolinecarboxylic acid hydrochloride]",0.0125,0.025,0.025,0.05,0.2,0.2,0.05,0.05,0.1,0.025,0.1,0.78,0.1,1.56,0.78,0.1,0.2,0.1,0.2,0.05,"MIC (C. difficile I-E): 0.78 µg/mL; MIC (S. pneumoniae 24; [11]): 0.05 µg/mL; MIC (S. pneumoniae 2950; [12]): 0.1 µg/mL; MIC (S. pneumoniae 3227; [13]): 0.1 µg/mL; MIC (S. pyogenes 4340; [14]): 0.1 µg/mL; MIC (S. pyogenes 4372; [15]): 0.1 µg/mL; ED50 (E. coli ML4707): 0.8 mg/kg; activity against gram-negative bacterial infections compared with the reference compounds (E. coli ML4707): greater activity against gram-negative bacterial infections than the reference compounds; ED50 (S. aureus Smith; challenge dose 5.5 x 10^5 cfu/mouse, n=5, read-out: ED50 against S. aureus Smith): 0.97 mg/kg; ED50 (S. aureus Smith; [16]): 0.9 mg/kg"
"CNCC1CCN(c2c(F)cc3c(=O)c(C(=O)O)cn(C4CC4)c3c2F)C1 (stereo not drawn) [Example 8, 1-Cyclopropyl-6,8-difluoro-1,4-dihydro-7-(3-methylaminomethyl-l-pyrrolidinyl)-4-oxo-3-quinolinecarboxylic acid hydrochloride]",–,0.025,0.025,0.025,0.05,0.1,0.05,0.025,0.1,0.0125,0.1,0.78,0.39,0.78,0.39,0.05,0.1,0.2,0.1,0.05,MIC ([1]; Bacillus subtilis): 0.0125 µg/mL; MIC (C. difficile I-E): 1.56 µg/mL; MIC (S. pneumoniae 24; [11]): 0.05 µg/mL; MIC (S. pneumoniae 2950; [12]): 0.1 µg/mL; MIC (S. pyogenes 4340; [14]): 0.05 µg/mL; MIC (S. pyogenes 4372; [15]): 0.05 µg/mL; ED50 (E. coli ML4707): 1.9 mg/kg; ED50 (S. aureus Smith; [16]): 1.1 mg/kg
"CCNCC1CCN(c2c(F)cc3c(=O)c(C(=O)O)cn(C4CC4)c3c2Cl)C1 (stereo not drawn) [Example 13, 8-Chloro-l-cyclorpropyl-6-fluoro-1,4-dihydro-7-(3-ethylaminomethyl-l-pyrrolidinyl)-4-oxo-3-quinolinecarboxylic acid]",0.0125,0.0125,0.025,0.025,0.05,0.05,0.05,0.05,0.1,0.025,0.1,0.78,0.39,0.1,0.05,0.05,0.1,0.05,0.1,0.05,MIC (S. pneumoniae 24; [11]): 0.05 µg/mL; MIC (S. pneumoniae 3227; [13]): 0.05 µg/mL; MIC (S. pyogenes 4340; [14]): 0.05 µg/mL; MIC (S. pyogenes 4372; [15]): 0.05 µg/mL; ED50 (E. coli ML4707): 0.7 mg/kg; activity against gram-negative bacterial infections compared with the reference compounds (E. coli ML4707): greater activity against gram-negative bacterial infections than the reference compounds; ED50 (S. aureus Smith; [16]): 0.6 mg/kg
"CCn1cc(C(=O)O)c(=O)c2cc(F)c(N3CCNCC3)cc21 [NFLX, Norfloxacin, reference compound]",0.1,0.78,0.78,0.39,3.13,–,0.05,0.05,0.2,0.05,0.1,0.78,3.13,25,25,6.25,6.25,6.25,6.25,3.13,MIC (S. faecalis IID 682): 1.56 µg/mL; MIC (C. difficile I-E): 50 µg/mL; MIC (S. pneumoniae 24; 24): 12.5 µg/mL; MIC (S. pneumoniae 2950; 2950): 12.5 µg/mL; MIC (S. pneumoniae 3227; 3227): 12.5 µg/mL; MIC (S. pyogenes 4340; 4340): 1.56 µg/mL; MIC (S. pyogenes 4372; 4372): 1.56 µg/mL
